Structures are written as SMILES. Structures can show the parent of a compound that is named as a salt.

Experiment [1] concerns the target T1, full-length proMMP9(1-707) (SEQ ID NO:1) (Homo sapiens, UniProt P14780, R574P).
T1 construct: made in house; host or cells: HEK293 (proMMP9, secreted); E. coli (MMP3)
Nature of the experiment: proMMP9/MMP3 P126 Activation Assay. It is filed as biochemical. Conditions: proMMP9(1-707) from HEK293 cells activated by catalytic MMP3. The method, then:
proMMP9/MMP3 P126 Activation Assay
The reaction volume was 50 μL. […] Reactivity of residual MMP3 towards P-126 substrate was minimal under these conditions.

Experiment [2] deals with T2, proMMP9(67-444;ΔFnII) (SEQ ID NO:5) (Homo sapiens, UniProt P14780, DEL216-390).
T2 construct: start methionine (N); made in house; host or cells: E. coli BL21(DE3) RIL
T2 sequence (P14780 with tags, fused parts or gaps DEL216-390): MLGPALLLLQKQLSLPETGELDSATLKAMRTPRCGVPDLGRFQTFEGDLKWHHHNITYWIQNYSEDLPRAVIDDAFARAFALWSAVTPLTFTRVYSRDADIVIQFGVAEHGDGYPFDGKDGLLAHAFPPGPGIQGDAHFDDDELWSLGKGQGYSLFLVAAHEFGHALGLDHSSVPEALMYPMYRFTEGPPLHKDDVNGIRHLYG
The experiment in a line: ThermoFluor with proMMP9(67-444;ΔFnII). Conditions: read-out: proMMP9(67-444; ΔFnII) (SEQ ID NO: 5) binding. In outline:
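Thermal shift with 3.5 μM protein and 50 μM 1,8-ANS in 50 mM HEPES pH 7.0, 100 mM NaCl, 0.001% Tween-20, 2.5 mM MgCl2, 300 μM CaCl2, heated 40–90 °C at 1 °C/min. Fluorescence (500±25 nm) fit to yield Tm; binding fitted using DSC/ThermoFluor-derived thermodynamic parameters, compounds dosed as serial dilutions.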

Experiment [3] has as its target T3, proMMP13(1-268) (SEQ ID NO:7) (Homo sapiens, UniProt P45452).
T3 construct: 6×-histidine tag (C); made in house; host or cells: HEK293 (transient transfection, secreted)
The experiment in a line: ProMMP13/Plasmin P126 Activation Assay. It is filed as biochemical. Conditions: proMMP13(1-268) activated by plasmin. As for the experimental part:
ProMMP13/Plasmin P126 Activation Assay
On the day of assay, proMMP13(1-268) (SEQ ID NO:7) purified from HEK293 cells and plasmin were diluted to 160 nM and 320 nM, respectively, in assay buffer. The reaction volume was 50 μL. […] The plate was sealed and incubated for 40 min at 37° C. […] Plasmin was not reactive towards P-126 substrate under these conditions.

Experiment [4] deals with T4, proMMP9(20-445;ΔFnII) (SEQ ID NO:6) (Homo sapiens, UniProt P14780, DEL216-390).
T4 construct: start methionine (N); made in house; host or cells: E. coli BL21(DE3) RIL
T4 sequence (P14780 with tags, fused parts or gaps DEL216-390): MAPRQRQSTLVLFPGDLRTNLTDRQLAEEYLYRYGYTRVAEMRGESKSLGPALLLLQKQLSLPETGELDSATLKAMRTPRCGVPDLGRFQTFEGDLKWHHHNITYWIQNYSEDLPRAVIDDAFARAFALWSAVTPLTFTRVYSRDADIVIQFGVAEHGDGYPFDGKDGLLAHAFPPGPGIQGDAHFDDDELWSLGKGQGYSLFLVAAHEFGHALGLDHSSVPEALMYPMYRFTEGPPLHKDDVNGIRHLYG
Nature of the experiment: ThermoFluor with proMMP9(20-445;ΔFnII). Conditions: read-out: proMMP9(20-445; ΔFnII) (SEQ ID NO: 6) binding. Put shortly:
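Thermal shift of 2.8 μM desalted proMMP9(20-445;ΔFnII) with 50 μM 1,8-ANS in 50 mM HEPES pH 7.0, NaCl, Tween-20, MgCl2, CaCl2; heated 40-90 °C at 1 °C/min, emission 500 nm. Tm from fitted curves; binding fit using DSC/ThermoFluor-derived unfolding parameters for 11-point compound dilutions.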
In general terms: In DSF a fluorescence change marks the thermal transition of the protein.

T1 sequence (P14780 20-707 R574P): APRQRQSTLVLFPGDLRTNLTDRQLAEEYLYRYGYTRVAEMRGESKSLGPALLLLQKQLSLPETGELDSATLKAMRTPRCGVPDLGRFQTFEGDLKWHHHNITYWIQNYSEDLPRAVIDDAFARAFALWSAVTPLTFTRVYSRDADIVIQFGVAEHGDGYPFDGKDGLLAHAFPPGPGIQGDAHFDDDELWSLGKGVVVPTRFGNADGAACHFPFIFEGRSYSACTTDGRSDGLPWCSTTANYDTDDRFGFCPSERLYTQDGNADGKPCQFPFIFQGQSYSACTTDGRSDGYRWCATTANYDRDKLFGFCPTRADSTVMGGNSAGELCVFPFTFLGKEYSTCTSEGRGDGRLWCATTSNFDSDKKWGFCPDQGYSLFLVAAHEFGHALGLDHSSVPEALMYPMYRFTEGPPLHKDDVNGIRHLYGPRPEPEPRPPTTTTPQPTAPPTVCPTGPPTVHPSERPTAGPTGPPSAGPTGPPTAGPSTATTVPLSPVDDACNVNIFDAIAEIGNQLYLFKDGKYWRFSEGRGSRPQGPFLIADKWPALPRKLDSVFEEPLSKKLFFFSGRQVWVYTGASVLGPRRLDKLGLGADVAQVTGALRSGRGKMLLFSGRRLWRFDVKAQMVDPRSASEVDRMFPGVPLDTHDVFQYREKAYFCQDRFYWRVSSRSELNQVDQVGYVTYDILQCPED

For the molecule `CC(C)Oc1ccc(C(N)=O)cc1Nc1nc(-c2ccc(CN3CCN(C)CC3)cc2)cs1` [Example 48, 4-isopropoxy-3-((4-(4-((4-methylpiperazin-1-yl)methyl)phenyl)thiazol-2-yl)amino)benzamide.TFA], the IC50 in experiment [1] worked out at 0.11 µM; in experiment [3] it was 0.85 µM. The Kd in experiment [2] is 0.099 µM; in experiment [4] it was 0.02 µM.
On the same counts, the results for `COc1ccc(F)cc1Nc1nc(-c2ccc(OCCN3CCN(C)CC3)cc2)cs1` [Example 69, N-(5-fluoro-2-methoxyphenyl)-4-(4-(2-(4-methylpiperazin-1-yl)ethoxy)phenyl)thiazol-2-amine.TFA] are 0.09 µM, 4.3 µM, 0.36 µM and 1.5 µM.
On the same counts, the results for `CC(C)Oc1ccc(S(N)(=O)=O)cc1Nc1nc(-c2ccc(N3CCNCC3)c(Br)c2)cs1` [Example 2, 3-((4-(3-Bromo-4-(piperazin-1-yl)phenyl)thiazol-2-yl)amino)-4-isopropoxybenzenesulfonamide.TFA] are 0.067 µM, 0.56 µM, 0.015 µM and 0.017 µM.
On the same counts, the results for `CC(C)Oc1ccc(S(N)(=O)=O)cc1Nc1nc(-c2ccc(CN3CC[C@@H](F)C3)cc2)cs1` [Example 53, (R)-3-((4-(4-((3-fluoropyrrolidin-1-yl)methyl)phenyl)thiazol-2-yl)amino)-4-isopropoxybenzenesulfonamide.TFA] are 0.059 µM, 0.93 µM, 0.095 µM and 0.058 µM.
As for `CC(C)Oc1ccc(C(N)=O)cc1Nc1nc(-c2ccc(OCCN3CCN(C4CC4)CC3)cc2)cs1` [Example 44, 3-((4-(4-(2-(4-cyclopropylpiperazin-1-yl)ethoxy)phenyl)thiazol-2-yl)amino)-4-isopropoxybenzamide.TFA], the IC50 in experiment [1] stood at 0.043 µM; in experiment [3] it was 0.52 µM. Besides, the Kd came out at 0.11 µM in experiment [2] and 0.024 µM in experiment [4].
On the same counts, the results for `CCOc1ccncc1Nc1nc(-c2ccc(OCCN3CCN(C)CC3)cc2)cs1` [Example 43, N-(4-ethoxypyridin-3-yl)-4-(4-(2-(4-methylpiperazin-1-yl)ethoxy)phenyl)thiazol-2-amine.TFA] are 0.07 µM, 2.9 µM, 0.089 µM and 0.55 µM.
On the same counts, the results for `CC(C)Oc1ccc(S(N)(=O)=O)cc1Nc1nc(-c2ccc(OCCCN3CCOCC3)cc2)cs1` [Example 47, 4-isopropoxy-3-((4-(4-(3-morpholinopropoxy)phenyl)thiazol-2-yl)amino)benzenesulfonamide.TFA] are 0.076 µM, 0.6 µM, 0.077 µM and 0.032 µM.
In the same order, the values of `CC(C)Oc1ccc(S(N)(=O)=O)cc1Nc1nc(-c2ccc(N3CCNCC3)cc2)cs1` [Example 1, 4-Isopropoxy-3-((4-(4-(piperazin-1-yl)phenyl)thiazol-2-yl)amino)benzenesulfonamide.TFA] are 0.02 µM, 0.23 µM, 0.006 µM and 0.015 µM.
`CC(C)Oc1ccc(C(N)=O)cc1Nc1nc(-c2ccc(CN3CCN(C(C)C)CC3)cc2)cs1` [Example 56, 4-isopropoxy-3-((4-(4-((4-isopropylpiperazin-1-yl)methyl)phenyl)thiazol-2-yl)amino)benzamide.TFA]: the values for the IC50 in experiment [1] and in experiment [3] were 0.1 µM and 0.42 µM, respectively. Further, the Kd in experiment [2] was determined as 0.08 µM; in experiment [4], 0.018 µM.

Usually IC50 stands for the concentration that gives 50% inhibition. A high value points to a need for much substance.

The values are drawn from patent US20120302569A1, “PHENYL-THIAZOLYL INHIBITORS OF PRO-MATRIX METALLOPROTEINASE ACTIVATION” (priority 2011, published 2012).
